Each structure is given as a SMILES string. pIC50: −log10 of the molar value.

For orientation: pIC50 means −log10 of the IC50, conventionally taken in molar units. A word on the half-life: it is the time needed for the level to fall by half in the phase considered. The low end stands for fast loss, the high end for slow loss.

Data set [1] addresses T1, Cathepsin K (Homo sapiens, UniProt P43235).
T1 sequence (P43235 whole entry): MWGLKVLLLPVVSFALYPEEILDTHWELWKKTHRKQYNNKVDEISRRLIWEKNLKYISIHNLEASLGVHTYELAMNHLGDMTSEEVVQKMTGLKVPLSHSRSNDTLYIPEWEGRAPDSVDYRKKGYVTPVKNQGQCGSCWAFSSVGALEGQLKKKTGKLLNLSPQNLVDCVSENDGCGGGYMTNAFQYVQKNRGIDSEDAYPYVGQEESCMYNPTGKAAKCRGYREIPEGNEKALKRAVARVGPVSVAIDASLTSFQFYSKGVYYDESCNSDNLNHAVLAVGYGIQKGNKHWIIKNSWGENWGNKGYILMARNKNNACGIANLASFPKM
Nature of the data set: Inhibition of human recombinant cathepsin K.

Data set [2] concerns the target Cathepsin S (Homo sapiens, UniProt P25774). Description: Inhibition of human recombinant cathepsin S.
Data set [3] has as its target Procathepsin L (Homo sapiens, UniProt P07711). Description: Inhibition of human recombinant cathepsin L.
Data set [4] in a line: Half life in rat at 4 uM/kg, iv and 10 uM/kg, po. It counts as ADME, organism-based. Particulars: in vivo.
Data set [5] in a line: Clearance in rat at 4 uM/kg, iv and 10 uM/kg, po. It counts as ADME, organism-based. Particulars: in vivo.

Chain of Cathepsin S (P25774 whole entry): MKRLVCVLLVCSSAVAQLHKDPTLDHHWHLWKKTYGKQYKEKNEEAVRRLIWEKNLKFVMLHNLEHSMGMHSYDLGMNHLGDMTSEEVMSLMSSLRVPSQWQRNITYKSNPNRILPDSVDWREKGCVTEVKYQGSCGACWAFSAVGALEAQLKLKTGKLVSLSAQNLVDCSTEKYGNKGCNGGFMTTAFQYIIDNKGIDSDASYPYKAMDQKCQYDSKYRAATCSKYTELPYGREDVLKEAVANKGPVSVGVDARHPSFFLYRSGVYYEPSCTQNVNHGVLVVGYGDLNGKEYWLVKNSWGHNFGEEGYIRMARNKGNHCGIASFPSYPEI
Chain of Procathepsin L (P07711 whole entry): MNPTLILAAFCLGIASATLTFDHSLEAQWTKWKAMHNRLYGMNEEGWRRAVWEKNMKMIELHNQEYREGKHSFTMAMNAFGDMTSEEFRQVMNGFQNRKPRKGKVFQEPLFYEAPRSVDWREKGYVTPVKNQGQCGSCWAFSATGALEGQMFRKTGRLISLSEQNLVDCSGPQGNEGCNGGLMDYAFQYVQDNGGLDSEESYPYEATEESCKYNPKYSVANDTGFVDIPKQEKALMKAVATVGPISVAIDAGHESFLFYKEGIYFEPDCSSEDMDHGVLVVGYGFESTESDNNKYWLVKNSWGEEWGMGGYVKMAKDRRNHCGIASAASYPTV

`COc1cccc(CCNC(=O)c2cnc(C#N)nc2NCC(C)(C)C)c1`: the pIC50 is greater than 8.52 in data set [1], 6.05 in data set [2] and 5.92 in data set [3].
As for `N#Cc1cncc(NC2CCCCC2)n1`, the pIC50 in data set [1] is less than 6.00.
On the same count and under the same terms, as for `N#Cc1ccnc(NC2CCCCC2)n1`, the figure is 6.92; as for `N#Cc1nccc(NC2CCCCC2)n1`, 6.77.
Take `N#Cc1ncc(C(=O)NCCc2ccccc2)c(NC2CCCCC2)n1`: the pIC50 is 8.00 in data set [1], 6.89 in data set [2] and 5.96 in data set [3].
Turning to `CC(C)(C)CNc1nc(C#N)ncc1C(=O)NCCc1ccc(OCCn2ccnc2)cc1`, the pIC50 in data set [1] is 8.52; in data set [2], 6.05; in data set [3], 6.28. The half-life in data set [4] came to 48 min. For the same compound, in data set [5], the clearance was 462 mL/min/kg.
With `N#Cc1cccc(NC2CCCCC2)n1`, the pIC50 in data set [1] is 6.00.
Consider `CN1CCC(Oc2ccc(CCNC(=O)c3cnc(C#N)nc3NCC(C)(C)C)cc2)CC1`, for which the pIC50 in data set [1] is 7.89; in data set [2] it was 5.00; in data set [3], 5.77.
On the same counts, the results for `COc1ccc(CCNC(=O)c2cnc(C#N)nc2NCC(C)(C)C)cc1` are greater than 8.52, 5.80 and 6.47.
Consider `CC(C)(C)CNc1nc(C#N)ncc1C(=O)NCCc1cccc(OCCn2ccnc2)c1`, for which the pIC50 in data set [1] was 8.52; in data set [2] it was 6.29; in data set [3], 6.17.
For the compound `COc1ccc(CCNC(=O)c2cnc(C#N)nc2NC2CCCCC2)cc1`, the negative logarithm of the IC50 (pIC50) in data set [1] was 7.66; in data set [2], 6.15; in data set [3] it was 6.77.
In the case of `CN1CCN(c2ccc(CCNC(=O)c3cnc(C#N)nc3NC3CCCCC3)cc2)CC1`, the negative logarithm of the IC50 (pIC50) was 7.33 in data set [1], 6.32 in data set [2] and 6.35 in data set [3].
Regarding `CN1CCN(c2cccc(CCNC(=O)c3cnc(C#N)nc3NCC(C)(C)C)c2)CC1`, the figures for the pIC50 in data set [1], in data set [2] and in data set [3] were 7.96, 5.74 and 6.09, respectively.
Take `CC(C)(C)CNc1nc(C#N)ncc1C(=O)NCCc1ccc(N2CCCC2)cc1`: the results for the pIC50 in data set [1], in data set [2] and in data set [3] were 6.52, less than 5.00 and less than 5.00, respectively.
As to `CN1CCN(c2ccc(CCNC(=O)c3cnc(C#N)nc3NCC(C)(C)C)cc2)CC1`, the pIC50 in data set [1] was 7.60; in data set [2], 5.51; in data set [3], 5.41.
In the case of `N#Cc1cccc(NC2CCCCC2)c1`, the pIC50 in data set [1] was less than 6.00.
Take `COc1cccc(CCNC(=O)c2cnc(C#N)nc2NC2CCCCC2)c1`: the pIC50 in data set [1] is 8.05; in data set [2], 6.64; in data set [3] it was 6.51.
On the same counts, the results for `CN1CCN(Cc2ccc(CCNC(=O)c3cnc(C#N)nc3NCC(C)(C)C)cc2)CC1` are 7.96, 5.60 and 6.48.
On the same counts, the results for `N#Cc1ncc(C(=O)NCCc2ccc(N3CCCC3)cc2)c(NC2CCCCC2)n1` are 6.12, 5.64 and 5.29.
On the same counts, the results for `COc1ccc(CCNC(=O)c2cnc(C#N)nc2NCC(C)(C)C)cc1OCCn1ccnc1` are 7.51, 5.59 and 6.24.

The values are drawn from ChEMBL document CHEMBL1141388, “2-Cyano-pyrimidines: a new chemotype for inhibitors of the cysteine protease cathepsin K” (J Med Chem, 2007).
